# Laboratory results taken from patent publication US20240116985A1, “STAPLED PEPTIDES AND METHODS THEREOF” (priority 2020, published 2024).
# Assay: CHI Log D procedure
# Assay type: physicochemical
# Details: pH 7.4
row,CHI Log D,SMILES
1,1.452,"CC(=O)NC(C)(C)C(=O)N[C@@H](CC(=O)O)C(=O)N[C@@H](C)C(=O)N[C@]1(C)CCCCCCC=CCOC(=O)N2CC[C@@](C(=O)N[C@@H](Cc3ccccc3)C(=O)N[C@@H](Cc3c[nH]c4ccccc34)C(=O)NC(C)(C)C(N)=O)(C2)NC(=O)[C@H](C(C)C)NC(=O)[C@H](Cc2ccccc2)NC(=O)[C@H](C)NC(=O)[C@H](C)NC(=O)[C@H](CCC(=O)O)NC(=O)[C@H](CC(=O)O)NC1=O [I-159, Ac-Aib-Asp-Ala-R8-Asp-Glu-Ala-Ala-Phe-Val-PyrS-Phe-Trp-Aib-NH2]"
2,1.312,"CC(=O)N[C@@H](Cc1ccccc1)C(=O)N[C@@H](CC(=O)O)C(=O)N[C@@H](C)C(=O)N[C@]1(C)CN(C)C(=O)OCC=CCCCCCC[C@@](C)(C(=O)N[C@@H](Cc2ccccc2)C(=O)N[C@@H](Cc2c[nH]c3ccccc23)C(=O)N[C@@H](CCC(N)=O)C(N)=O)NC(=O)[C@H](C(C)C)NC(=O)[C@H](Cc2ccccc2)NC(=O)[C@H](C)NC(=O)[C@H](C)NC(=O)[C@H](CC(=O)O)NC(=O)[C@H](CC(=O)O)NC1=O (single isomer, unassigned) [I-44, Ac-Phe-Asp-Ala-RgN-Asp-Asp-Ala-Ala-Phe-Val-S8-Phe-Trp-Gln-NH2]"
3,2.372,"CC(=O)N1CCC[C@]12CC=CCCCC1(CCCC=CCCCCCC[C@@](C)(C(=O)N[C@@H](Cc3ccccc3)C(=O)N[C@@H](Cc3csc4ccccc34)C(=O)N(C)[C@@H](Cc3cnc[nH]3)C(N)=O)NC(=O)[C@H](CC(N)=O)NC(=O)[C@H](Cc3ccccc3)NC(=O)[C@H](C)NC(=O)[C@H](C)NC(=O)[C@H](CCC(=O)O)NC(=O)[C@H](CC(=O)O)NC1=O)NC(=O)[C@H](CC(C)C)NC(=O)[C@H](CC(=O)O)NC2=O (stereo partly drawn) [I-746, Ac-PL3-Asp-Leu-B5-Asp-Glu-Ala-Ala-Phe-Asn-S8-Phe-BztA-NMeHis-NH2]"
4,2.2,"CC(=O)N1CCC[C@]12CC=CCCCC1(CCCC=CCCCCCC[C@@](C)(C(=O)N[C@@H](Cc3ccccc3)C(=O)N[C@@H](Cc3c[nH]c4ccccc34)C(=O)N[C@@H](CCC(N)=O)C(N)=O)NC(=O)[C@H](C(C)C)NC(=O)[C@H](Cc3ccccc3)NC(=O)[C@H](C)NC(=O)[C@H](C)NC(=O)[C@H](CC(=O)O)NC(=O)[C@H](CCC(=O)O)NC1=O)NC(=O)[C@H](C)NC(=O)[C@H](CC(=O)O)NC2=O (stereo partly drawn) [I-281, Ac-PL3-Asp-Ala-B5-Glu-Asp-Ala-Ala-Phe-Val-S8-Phe-Trp-Gln-NH2]"
5,0.998,"CC(=O)N[C@@H](Cc1ccccc1)C(=O)N[C@@H](CC(=O)O)C(=O)N[C@@H](C)C(=O)N[C@]1(C)CCCCCCC=CCOC(=O)N2CC[C@@](C(=O)N[C@@H](Cc3ccncc3)C(=O)N[C@@H](Cc3c[nH]c4ccccc34)C(=O)N[C@@H](CCC(N)=O)C(N)=O)(C2)NC(=O)[C@H](C(C)C)NC(=O)[C@H](Cc2ccccc2)NC(=O)[C@H](C)NC(=O)[C@H](C)NC(=O)[C@H](CC(=O)O)NC(=O)[C@H](CC(=O)O)NC1=O (single isomer, unassigned) [I-85, Ac-Phe-Asp-Ala-R8-Asp-Asp-Ala-Ala-Phe-Val-PyrS-4PyrA-Trp-Gln-NH2]"
6,1.205,"CC(=O)N[C@@H](Cc1ccccc1)C(=O)N[C@@H](CC(=O)O)C(=O)N[C@@H](C)C(=O)N[C@]1(C)CN(C)C(=O)OCC=CCCCCC[C@@](C)(C(=O)N[C@@H](Cc2ccccc2)C(=O)N[C@@H](Cc2c[nH]c3ccccc23)C(=O)N[C@@H](CCC(N)=O)C(N)=O)NC(=O)[C@H](C(C)C)NC(=O)[C@H](Cc2ccccc2)NC(=O)[C@H](C)NC(=O)[C@H](C)NC(=O)[C@H](CC(=O)O)NC(=O)[C@H](CC(=O)O)NC1=O (single isomer, unassigned) [I-46, Ac-Phe-Asp-Ala-RgN-Asp-Asp-Ala-Ala-Phe-Val-S7-Phe-Trp-Gln-NH2]"
7,2.152,"CC(=O)N[C@@H](Cc1ccccc1)C(=O)N[C@@H](CC(=O)O)C(=O)N[C@@H](C)C(=O)N[C@]1(C)CCCCCCC=CCOC(=O)N2CC[C@@](C(=O)N[C@@H](Cc3ccccc3)C(=O)N[C@@H](Cc3c[nH]c4ccccc34)C(=O)N[C@@H](CCC(N)=O)C(N)=O)(C2)NC(=O)[C@H](C(C)C)NC(=O)[C@H](Cc2ccccc2)NC(=O)[C@H](C)NC(=O)[C@H](C)NC(=O)[C@@](C)(Cc2ccccc2)NC(=O)[C@H](CC(=O)O)NC1=O (single isomer, unassigned) [I-57, Ac-Phe-Asp-Ala-R8-Asp-aMeDF-Ala-Ala-Phe-Val-PyrS-Phe-Trp-Gln-NH2]"
8,1.239,"CC(=O)N[C@@H](Cc1ccccc1)C(=O)N[C@@H](CC(=O)O)C(=O)N[C@@H](C)C(=O)N[C@]1(C)CCCCCCC=CCOC(=O)N2CC[C@@](C(=O)N[C@@H](Cc3ccccc3)C(=O)N[C@@H](Cc3c[nH]c4ccccc34)C(=O)N[C@@H](CCC(N)=O)C(N)=O)(C2)NC(=O)[C@H](C(C)C)NC(=O)[C@H](Cc2cccnc2)NC(=O)[C@H](C)NC(=O)[C@H](C)NC(=O)[C@H](CC(=O)O)NC(=O)[C@H](CC(=O)O)NC1=O (single isomer, unassigned) [I-88, Ac-Phe-Asp-Ala-R8-Asp-Asp-Ala-Ala-3PyrA-Val-PyrS-Phe-Trp-Gln-NH2]"

# Same assay, conditions: pH 7.4, CHI Log D
row,chromatographic logD,SMILES
1,1.5,"CC(=O)N[C@@H](Cc1ccccc1)C(=O)N[C@@H](CC(=O)O)C(=O)N[C@@H](C)C(=O)N[C@]1(C)CCCCCCC=CCOC(=O)N2CC[C@@](C(=O)N[C@@H](Cc3ccccc3)C(=O)N[C@@H](Cc3c[nH]c4ccccc34)C(=O)N[C@@H](CCC(N)=O)C(N)=O)(C2)NC(=O)[C@H](C(C)C)NC(=O)[C@H](Cc2ccccc2)NC(=O)[C@H](C)NC(=O)[C@H](C)NC(=O)[C@H](CCC(N)=O)NC(=O)[C@H](CC(=O)O)NC1=O (single isomer, unassigned) [I-58, Ac-Phe-Asp-Ala-R8-Asp-Gln-Ala-Ala-Phe-Val-PyrS-Phe-Trp-Gln-NH2]"
2,0.985,"CC(=O)N[C@@H](Cc1ccccc1)C(=O)N[C@@H](CC(=O)O)C(=O)N[C@@H](C)C(=O)N[C@]1(C)CCCCCCC=CCOC(=O)N2CC[C@@](C(=O)N[C@@H](Cc3ccncc3)C(=O)N[C@@H](Cc3c[nH]c4ccccc34)C(=O)N[C@@H](CCC(N)=O)C(N)=O)(C2)NC(=O)[C@H](C(C)C)NC(=O)[C@H](Cc2ccccc2)NC(=O)[C@H](C)NC(=O)[C@H](C)NC(=O)[C@H](CC(=O)O)NC(=O)[C@H](CC(=O)O)NC1=O (single isomer, unassigned) [I-84, Ac-Phe-Asp-Ala-R8-Asp-Asp-Ala-Ala-Phe-Val-PyrS-4PyrA-Trp-Gln-NH2]"
3,1.32,"CC(=O)N[C@@H](Cc1ccccc1)C(=O)N[C@@H](CC(=O)O)C(=O)N[C@@H](C)C(=O)N[C@]1(C)CCCCCCC=CCOC(=O)N(C)C[C@@](C)(C(=O)N[C@@H](Cc2ccccc2)C(=O)N[C@@H](Cc2c[nH]c3ccccc23)C(=O)N[C@@H](CCC(N)=O)C(N)=O)NC(=O)[C@H](C(C)C)NC(=O)[C@H](Cc2ccccc2)NC(=O)[C@H](C)NC(=O)[C@H](C)NC(=O)[C@H](CC(=O)O)NC(=O)[C@H](CC(=O)O)NC1=O [I-34, Ac-Phe-Asp-Ala-R8-Asp-Asp-Ala-Ala-Phe-Val-SgN-Phe-Trp-Gln-NH2]"
4,1.2,"CCCC[C@@H]1NC(=O)[C@H](C)NC(=O)[C@H](C)NC(=O)[C@H](CC(=O)O)NC(=O)[C@H](CC(=O)O)NC(=O)[C@](C)(NC(=O)[C@H](C)NC(=O)[C@H](CC(=O)O)NC(=O)[C@H](Cc2ccccc2)NC(C)=O)CCCCCCC=CCOC(=O)N2CC[C@@](C(=O)N[C@@H](Cc3ccccc3)C(=O)N[C@@H](Cc3c[nH]c4ccccc34)C(=O)N[C@@H](CCC(N)=O)C(N)=O)(C2)NC(=O)[C@H](C(C)C)NC1=O [I-76, Ac-Phe-Asp-Ala-R8-Asp-Asp-Ala-Ala-nLeu-Val-PyrS-Phe-Trp-Gln-NH2]"
5,1.33,"CC(=O)N[C@@H](Cc1ccccc1)C(=O)N[C@@H](CC(=O)O)C(=O)N[C@@H](C)C(=O)N[C@]1(C)CCCCCCC=CCOC(=O)N2CC[C@@](C(=O)N[C@@H](Cc3ccccc3)C(=O)N[C@@H](Cc3c[nH]c4ccccc34)C(=O)N[C@@H](CCC(N)=O)C(N)=O)(C2)NC(=O)[C@H](C(C)C)NC(=O)[C@H](Cc2ccccc2)NC(=O)[C@H](C)NC(=O)[C@H](C)NC(=O)[C@H](CCCC(=O)O)NC(=O)[C@H](CC(=O)O)NC1=O (single isomer, unassigned) [I-5, Ac-Phe-Asp-Ala-R8-Asp-Aad-Ala-Ala-Phe-Val-PyrS-Phe-Trp-Gln-NH2]"
6,1.26,"CC(=O)N[C@@H](Cc1ccccc1)C(=O)N[C@@H](CC(=O)O)C(=O)N[C@@H](C)C(=O)N[C@]1(C)CCCCCCC=CCOC(=O)N2CC(C(=O)N[C@@H](Cc3ccccc3)C(=O)N[C@@H](Cc3c[nH]c4ccccc34)C(=O)N[C@@H](CCC(N)=O)C(N)=O)(C2)NC(=O)[C@H](C(C)C)NC(=O)[C@H](Cc2ccccc2)NC(=O)[C@H](C)NC(=O)[C@H](C)NC(=O)[C@H](CC(=O)O)NC(=O)[C@H](CC(=O)O)NC1=O (single isomer, unassigned) [I-39, Ac-Phe-Asp-Ala-R8-Asp-Asp-Ala-Ala-Phe-Val-Az-Phe-Trp-Gln-NH2]"
7,2.82,"CC(=O)N1CCC[C@]12CC=CCCCC1(CCCC=CCCCCCC[C@@](C)(C(=O)N[C@@H](Cc3ccccc3)C(=O)N[C@@H](Cc3c[nH]c4ccccc34)C(=O)N[C@@H](CCC(N)=O)C(N)=O)NC(=O)[C@H](C(C)C)NC(=O)[C@H](Cc3ccccc3)NC(=O)[C@H](C)NC(=O)[C@H](C)NC(=O)[C@H](CCC(=O)O)NC(=O)[C@H](Cc3cccnc3)NC1=O)NC(=O)[C@H](C)NC(=O)[C@H](CC(=O)O)NC2=O (stereo partly drawn) [I-213, Ac-PL3-Asp-Ala-B5-3pyrA-Glu-Ala-Ala-Phe-Val-S8-Phe-Trp-Gln-NH2]"
8,1.16,"CC(=O)N[C@@H](Cc1ccccc1)C(=O)N[C@@H](CC(=O)O)C(=O)N[C@@H](C)C(=O)N[C@]1(C)CCCC=CCOC(=O)N(C)CC[C@@](C)(C(=O)N[C@@H](Cc2ccccc2)C(=O)N[C@@H](Cc2c[nH]c3ccccc23)C(=O)N[C@@H](CCC(N)=O)C(N)=O)NC(=O)[C@H](C(C)C)NC(=O)[C@H](Cc2ccccc2)NC(=O)[C@H](C)NC(=O)[C@H](C)NC(=O)[C@H](CC(=O)O)NC(=O)[C@H](CC(=O)O)NC1=O [I-37, Ac-Phe-Asp-Ala-R5-Asp-Asp-Ala-Ala-Phe-Val-SdN-Phe-Trp-Gln-NH2]"
